Results reported in US9139581B2 (PORTOLA PHARMACEUTICALS, INC., priority 2008, dated 2015).

Tests used:
JAK1 = molecular target: T1, JAK1 (Homo sapiens, UniProt P23458); test: Millipore Upstate KinaseProfiler screening, JAK1 catalytic activity; format: biochemical; settings: Table 5; read-out: Inhibition (IC50%) of catalytic activity of JAK 1
T1 construct: purchased Millipore Upstate KinaseProfiler

JAK2 = molecular target: T2, JAK2 (Homo sapiens, UniProt O60674); test: Millipore Upstate KinaseProfiler screening, JAK2 catalytic activity; format: biochemical; settings: Table 5; read-out: Inhibition (IC50%) of catalytic activity of JAK 2
T2 construct: purchased Millipore Upstate KinaseProfiler

Purified human JAK3 = molecular target: T3, Purified human JAK3 (Homo sapiens, UniProt P52333); test: Millipore Upstate KinaseProfiler screening, JAK3 catalytic activity; format: biochemical; settings: Table 5; read-out: Inhibition (IC50%) of catalytic activity of JAK 3
T3 construct: purchased Millipore Upstate KinaseProfiler; host or cells: insect cells
Procedure: This assay is a direct measurement of the effect of compound on the catalytic activity of JAK3. Purified human JAK3 (GenBank AF513860) sequence (residue 781-C terminus) was obtained from insect cells. The catalytic hydrolysis of ATP is measured using a radiometric filter binding method. Incubation of kinase with ^33-[P]ATP and substrate leads to incorporation of ^33[P] into the substrate which can then be separated from the other reaction components by filtration. Assays were performed using 10 μM ATP and in the absence or presence of 1, 0.3, or 0.1 μM compound. Activity was expressed as % of inhibition of control.
In the table below, activity in the Jak assays is provided as follows: +++++=IC50<0.0010 μM; ++++=0.0010 μM<IC50<0.010 μM, +++=0.010 μM<IC50<0.10 μM, ++=0.10 μM<IC50<1 μM, +=IC50>1 μM.

[1] = test system: SUDHL-4 and SUDHL-6 cells; settings: Chen, Monti et al. 2008; cited from earlier work
[2] = test system: Toledo and Karpas-422 cell lines; settings: Chen, Monti et al. 2008; cited from earlier work
SUDHL-6 and Toledo cells = test: Caspase 3 apoptosis assay; format: cell-based, human; settings: 1 μM, 72 h treatment
Procedure: Induction of apoptosis in non-Hodgkin's lymphoma B cell lines SUDHL-4, SUDHL-6, and Toledo was assessed by measuring the apoptotis marker Caspase 3. Cells were incubated with 1, 3, or 10 μM compound for 24, 48, and 72 hours. At the conclusion of each time point, cells were processed for flow cytometry analysis using the Monoclonal Rabbit Anti-Active Caspase-3 Antibody Kit and related protocols (BD Pharmingen). Data from two independent experiments are presented in Tables 5A and 5B, representing the percent of total cells undergoing apoptosis following incubation with compounds under the indicated conditions.
Induction of apoptosis was measured using the PE-conjugated monoclonal active caspase-3 antibody apoptosis kit (Becton Dickenson) following the supplied protocol. Cells were suspended in growth media (0.5×10^6 cells/ml) and treated with the indicated concentrations of each Syk inhibitor or vehicle control for 24, 48, or 72 hours prior to FACS analysis. The MTT (3-(4,5-Dimethylthiazol-2-yl)-2,5-diphenyltetrazolium bromide, a tetrazole) assay […] was used as a measure of cell viability and growth, following protocols supplied by the manufacturer. Cells were treated with the indicated concentrations of each Syk inhibitor or vehicle control for 72 hours.
Selective inhibition of Syk was sufficient to induce apoptosis in “BCR-type” NHL cell lines.

T3 sequence (P52333 781-1124 limits assumed): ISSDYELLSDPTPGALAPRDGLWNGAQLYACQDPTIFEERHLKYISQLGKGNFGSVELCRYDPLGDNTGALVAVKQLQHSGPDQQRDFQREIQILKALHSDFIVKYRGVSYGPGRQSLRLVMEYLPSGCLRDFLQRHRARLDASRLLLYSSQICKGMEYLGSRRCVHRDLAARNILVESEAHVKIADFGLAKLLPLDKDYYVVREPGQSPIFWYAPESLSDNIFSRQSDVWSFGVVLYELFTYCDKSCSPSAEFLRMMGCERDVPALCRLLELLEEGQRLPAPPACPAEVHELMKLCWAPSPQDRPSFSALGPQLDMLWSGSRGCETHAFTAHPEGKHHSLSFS
T1 sequence (P23458 whole entry): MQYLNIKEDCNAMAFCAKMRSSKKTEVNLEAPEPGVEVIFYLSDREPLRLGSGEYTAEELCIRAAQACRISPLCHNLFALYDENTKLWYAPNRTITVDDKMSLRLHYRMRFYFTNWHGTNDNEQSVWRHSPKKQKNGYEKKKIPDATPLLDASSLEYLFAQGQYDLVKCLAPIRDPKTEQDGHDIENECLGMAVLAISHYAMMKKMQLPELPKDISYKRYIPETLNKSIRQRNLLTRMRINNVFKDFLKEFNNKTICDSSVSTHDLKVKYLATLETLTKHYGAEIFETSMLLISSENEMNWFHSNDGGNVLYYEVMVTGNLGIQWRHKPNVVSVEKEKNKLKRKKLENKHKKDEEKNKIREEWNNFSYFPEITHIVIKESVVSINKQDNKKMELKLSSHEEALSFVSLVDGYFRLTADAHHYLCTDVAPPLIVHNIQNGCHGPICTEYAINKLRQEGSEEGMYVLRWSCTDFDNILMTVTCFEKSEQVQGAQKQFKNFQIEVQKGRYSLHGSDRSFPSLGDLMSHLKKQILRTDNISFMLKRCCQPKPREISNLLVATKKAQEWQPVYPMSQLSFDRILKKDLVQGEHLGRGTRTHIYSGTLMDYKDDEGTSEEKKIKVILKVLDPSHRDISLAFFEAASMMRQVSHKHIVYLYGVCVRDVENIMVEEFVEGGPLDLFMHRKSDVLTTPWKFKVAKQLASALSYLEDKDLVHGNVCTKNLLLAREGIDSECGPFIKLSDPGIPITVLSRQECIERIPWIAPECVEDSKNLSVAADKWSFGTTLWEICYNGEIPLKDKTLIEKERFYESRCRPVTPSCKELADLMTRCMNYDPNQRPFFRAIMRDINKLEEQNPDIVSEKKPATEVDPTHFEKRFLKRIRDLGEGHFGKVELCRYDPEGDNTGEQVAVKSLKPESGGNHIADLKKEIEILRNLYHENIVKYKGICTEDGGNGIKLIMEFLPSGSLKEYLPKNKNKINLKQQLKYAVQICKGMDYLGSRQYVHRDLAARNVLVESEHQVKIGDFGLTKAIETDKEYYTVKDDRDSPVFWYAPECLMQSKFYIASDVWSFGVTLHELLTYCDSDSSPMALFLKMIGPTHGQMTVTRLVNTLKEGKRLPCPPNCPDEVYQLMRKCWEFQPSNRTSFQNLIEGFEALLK
T2 sequence (O60674 whole entry): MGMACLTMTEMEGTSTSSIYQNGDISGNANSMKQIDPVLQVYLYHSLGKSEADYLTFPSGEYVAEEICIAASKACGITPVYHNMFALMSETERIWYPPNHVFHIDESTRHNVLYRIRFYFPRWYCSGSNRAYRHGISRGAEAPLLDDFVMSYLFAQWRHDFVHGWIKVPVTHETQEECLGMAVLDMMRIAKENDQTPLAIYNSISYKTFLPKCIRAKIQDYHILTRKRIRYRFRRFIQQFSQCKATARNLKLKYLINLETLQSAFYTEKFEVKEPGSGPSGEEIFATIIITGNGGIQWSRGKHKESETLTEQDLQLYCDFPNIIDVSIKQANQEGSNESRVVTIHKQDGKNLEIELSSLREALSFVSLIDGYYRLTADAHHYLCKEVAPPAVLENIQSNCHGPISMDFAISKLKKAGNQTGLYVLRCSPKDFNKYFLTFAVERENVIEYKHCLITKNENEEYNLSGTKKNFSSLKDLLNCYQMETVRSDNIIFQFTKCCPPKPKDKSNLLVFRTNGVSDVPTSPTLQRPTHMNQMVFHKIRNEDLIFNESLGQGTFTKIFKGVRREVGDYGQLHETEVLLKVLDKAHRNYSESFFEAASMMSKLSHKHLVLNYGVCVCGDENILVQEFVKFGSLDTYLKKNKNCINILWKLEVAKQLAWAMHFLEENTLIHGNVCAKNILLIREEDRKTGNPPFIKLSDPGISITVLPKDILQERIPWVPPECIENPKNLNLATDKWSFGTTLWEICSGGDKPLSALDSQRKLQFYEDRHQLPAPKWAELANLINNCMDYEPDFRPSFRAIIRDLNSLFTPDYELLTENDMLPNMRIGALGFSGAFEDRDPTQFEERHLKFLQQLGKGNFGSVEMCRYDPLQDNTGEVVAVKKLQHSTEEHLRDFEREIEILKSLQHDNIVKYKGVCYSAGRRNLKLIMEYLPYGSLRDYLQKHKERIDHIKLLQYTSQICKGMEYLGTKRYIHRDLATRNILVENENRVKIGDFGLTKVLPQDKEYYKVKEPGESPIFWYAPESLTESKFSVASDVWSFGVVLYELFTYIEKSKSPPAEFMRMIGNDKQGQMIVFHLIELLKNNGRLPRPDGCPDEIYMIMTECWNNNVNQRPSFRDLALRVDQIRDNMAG

IC50 (JAK1) [nM] | IC50 (JAK2) [nM] | IC50 (Purified human JAK3) [nM] | Compound | Sensitivity to Syk inhibition by R406 [1] | Sensitivity to R406 [2] | Induction of apoptosis (SUDHL-6 and Toledo cells)
> 1000 | 100 to 1000 | 100 to 1000 | Cc1c[nH]c2nc(Nc3ccc4cn[nH]c4c3)nc(NC3CCC3)c12 | – | – | –
> 1000 | 100 to 1000 | 100 to 1000 | CS(=O)(=O)N1CCN(c2ccc(Nc3nc(Nc4cccc(S(N)(=O)=O)c4)c4cc[nH]c4n3)cc2)CC1 | – | – | –
– | – | – | COc1cc(Nc2ncc(F)c(Nc3ccc4c(n3)NC(=O)C(C)(C)O4)n2)cc(OC)c1OC [Example R406] | sensitive | insensitive | –
10 to 100 | 10 to 100 | 10 to 100 | N#CCC(=O)N1CCCC(Nc2nc(Nc3ccc(C(N)=O)cc3)nc3[nH]ccc23)C1 (stereo not drawn) [drawing 212] | – | – | –
100 to 1000 | 100 to 1000 | 100 to 1000 | c1cc2c(NC3CC3)nc(Nc3ccc4cn[nH]c4c3)nc2[nH]1 [drawing 204] | – | – | –
> 1000 | > 1000 | > 1000 | CC(=O)c1c[nH]c2nc(Nc3ccc4cn[nH]c4c3)nc(NC3CC3)c12 [drawing 207] | – | – | –
– | – | – | CCCCCCCCCCCCCC(=O)O[C@@H]1[C@@H](C)[C@@]2(O)[C@@H](C=C(CO)C[C@]3(O)C(=O)C(C)=C[C@@H]23)[C@@H]2C(C)(C)[C@]12OC(C)=O [PMA] | – | – | equally sensitive to induction of apoptosis

Compound | IC50 (JAK1) [nM] | IC50 (JAK2) [nM] | IC50 (Purified human JAK3) [nM] | Sensitivity to Syk inhibition by R406 [1] | Sensitivity to R406 [2] | Induction of apoptosis (SUDHL-6 and Toledo cells)
CC(=O)N1CCN(c2ccc(Nc3nc(N4CCC(CN)CC4)c4cc[nH]c4n3)cc2)CC1 [drawing 208] | 100 to 1000 | 100 to 1000 | 100 to 1000 | – | – | –
